Measurements as given in paper PMC10412832 (Computational and Structural Biotechnology Journal, 2023).
Like-named read-outs stand apart in the source and are kept apart here. Ends that are not written are not given here.

How the values were obtained:
[1] = tested on: SARS-CoV-2; conditions: cited from earlier work
[2] = ref [44]; cited from earlier work
[3] = target: recombinant SARS-CoV-2 M^pro (Severe acute respiratory syndrome coronavirus 2, UniProt P0DTD1)
[4] = ref [46]; cited from earlier work

LL-37: Source: Homo sapiens (LLGDFFRKSKEKIGKEFKRIVQRIKDFLRNLVPRTES; Antibacterial peptide LL-37; UniProt P49913 134-170, looked up)
Effect against viruses / SARS-CoV-2 ([1]; ref [36]): effective against viruses and a few against SARS-CoV-2

Protegrin 1: Source: Sus scrofa (RGGRLCYCRRRFCVCVGR; ends and bridges not checked; cysteine pairing not given here; UniProt P32194 131-148, looked up)
Effect against viruses / SARS-CoV-2 ([1]; ref [36]): effective against viruses and a few against SARS-CoV-2

Protegrin 2: cysteine rich potent antimicrobial peptide originally isolated from pigs; two cysteine-cysteine disulfide bridges; PDB ID 2MUH
Antimicrobial activity [2]: potent | M^pro proteolytic cleavage activity [3]: inhibits the proteolytic cleavage activity of M^pro | Toxicity [4]: low toxicity

beta-defensin 1: naturally occurring antimicrobial peptide (DHYNCVSSGGQCLYSACPIFTKIQGTCYRGKAKCCK; ends and bridges not checked; cysteine pairing not given here; UniProt P60022 33-68, looked up)
Effect against viruses / SARS-CoV-2 ([1]; ref [36]): effective against viruses and a few against SARS-CoV-2

B1: human defensin 5: Source: Homo sapiens (peptide, UniProt Q01523 20-94, looked up)
Defensin alpha 5: ESLQERADEATTQKQSGEDNQDLAISFAGNGLSALRTSGSQARATCYCRTGRCATRESLSGVCEISGRLYRLCCR
modifications: Defensin-5
Effect against viruses / SARS-CoV-2 ([1]; ref [38], [39]): effective against viruses and a few against SARS-CoV-2
